The values below come from PubChem BioAssay (NCI).

Among the test systems are BT-549 breast; COLO 205 colon; HS 578T breast; UACC-257 melanoma; HCT-116 colon; MOLT-4 leukemia; UO-31 renal; SNB-19 CNS; MDA-N; A549 NSCLC; UACC-62 melanoma.
Holding throughout (experiment): growth of human tumour cells (NCI), 48 h

Each structure is given as a SMILES string.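 These data come from cells grown in 96-well plates and exposed to compound for 48 hours at five concentrations. TGI: concentration producing complete growth inhibition.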

On to `CCNC(=O)c1c(O)c2ccccc2[nH]c1=O`, for which the TGI in the test with BT-549 breast, in the test with COLO 205 colon, in the test on HS 578T breast, in the test with UACC-257 melanoma, in the test with HCT-116 colon and in the test on MOLT-4 leukemia was over 100 µM each time. For the same compound, the TGI in the test with UO-31 renal, in the test on SNB-19 CNS, in the test with MDA-N and in the test on A549 NSCLC was over 100 µM in each case.
On to `FC(F)(F)c1cccc(-c2nc3ccccc3c3c2[C@@]2(N4CCCC4)CCCC[C@@H]32)c1`, for which the TGI in the test with COLO 205 colon is 30.4 µM; in the test with HS 578T breast, over 100 µM; in the test on UACC-257 melanoma, over 100 µM; with HCT-116 colon it was over 100 µM; in the test with UACC-62 melanoma it was 56.3 µM; with MOLT-4 leukemia, over 100 µM. For the same compound, the TGI with UO-31 renal was 48.9 µM; in the test with SNB-19 CNS, over 100 µM; in the test on MDA-N, over 100 µM; in the test on A549 NSCLC, over 100 µM.
Turning to `O=C1CCCCCCCCCCC1CN1CCCCC1` (configuration not stated), the TGI with COLO 205 colon, in the test on UACC-257 melanoma, with HCT-116 colon, in the test with UACC-62 melanoma, in the test on MOLT-4 leukemia and with UO-31 renal was over 100 µM throughout. The TGI with SNB-19 CNS and in the test on A549 NSCLC was over 100 µM each time.
For `CCOC(=O)CNc1nc(=O)c2c(=O)oc(Cl)cc2o1`, the TGI was over 100 µM in the test on COLO 205 colon; 45.1 µM in the test with HS 578T breast; 38.4 µM in the test on UACC-257 melanoma; 24.4 µM in the test on HCT-116 colon; 39.9 µM with UACC-62 melanoma; 29.8 µM with MOLT-4 leukemia. Besides, the TGI with UO-31 renal was 25.4 µM; in the test with SNB-19 CNS, over 100 µM; with MDA-N it was 48 µM; in the test with A549 NSCLC, 40.6 µM.
Consider `CC(C)(C)C(=O)OC12/C(=N/O)CCCCCC1c1ccccc12` (configuration not stated), for which the TGI in the test with COLO 205 colon is 31.3 µM; in the test on UACC-257 melanoma it was 28.5 µM; in the test with HCT-116 colon, 27.5 µM; with UACC-62 melanoma, 31.5 µM; in the test with MOLT-4 leukemia, 34.4 µM; with UO-31 renal, 31.7 µM. Besides, the TGI in the test with SNB-19 CNS came out at 31.1 µM; in the test with A549 NSCLC, 31.6 µM.
Take `CC(=O)N=C1N(/C=C2\C(=O)Oc3ccccc3C2=O)C(=O)/C(=C/c2ccc(NC(C)=O)cc2)N1C`: the TGI with COLO 205 colon, in the test with HS 578T breast, in the test with UACC-257 melanoma, in the test with HCT-116 colon, in the test with UACC-62 melanoma and with MOLT-4 leukemia was over 100 µM throughout. In addition, the TGI in the test with MDA-N and in the test with A549 NSCLC was over 100 µM throughout.
Consider `C=C1C(=O)O[C@H]2[C@@H](O)[C@H](C)CCC[C@]3(C)O[C@H]3CC[C@@]3(C)O[C@@H]3C[C@@H]12`, for which the TGI in the test on BT-549 breast was determined as 4.5 µM; in the test with COLO 205 colon, 10.3 µM; in the test on HS 578T breast, 42 µM; with HCT-116 colon it was 6.52 µM; in the test with UACC-62 melanoma, 8.8 µM; in the test on MOLT-4 leukemia, 7.15 µM. The values for the TGI with UO-31 renal, in the test with SNB-19 CNS and in the test with A549 NSCLC were 12.4 µM, 27.7 µM and 18.3 µM, respectively.
For the compound `O=C(NCc1cccc2ccccc12)N/N=C\c1ccc(Cl)cc1`, the TGI in the test with BT-549 breast, in the test on COLO 205 colon, in the test with UACC-257 melanoma, in the test on HCT-116 colon, with UACC-62 melanoma and with MOLT-4 leukemia was over 100 µM throughout. The TGI in the test on UO-31 renal was over 100 µM; in the test on SNB-19 CNS, over 100 µM; with MDA-N, 75.7 µM.
Turning to `COc1ccc(CN=C(N)N)c2ccccc12`, the TGI is 38 µM in the test with COLO 205 colon; 54.9 µM in the test on HS 578T breast; over 100 µM in the test with UACC-257 melanoma; over 100 µM with HCT-116 colon; over 100 µM with UACC-62 melanoma; over 100 µM with MOLT-4 leukemia. For the same compound, the TGI in the test with UO-31 renal is 87.9 µM; in the test on SNB-19 CNS, over 100 µM; in the test with MDA-N, over 100 µM; with A549 NSCLC, over 100 µM.
Regarding `COc1cc2cc(C(=O)N3CC(CCl)c4c3cc(N)c3ccccc43)[nH]c2c(OC)c1OC` (configuration not stated), the TGI with COLO 205 colon was under 0.01 µM; with HCT-116 colon it was 1.08 µM; in the test with UACC-62 melanoma it was under 0.01 µM; with MOLT-4 leukemia, under 0.01 µM; in the test on UO-31 renal it was under 0.01 µM; with SNB-19 CNS, 10.5 µM. The compound further returned a TGI with A549 NSCLC of 1.4 µM.
For `Cc1c(C(=O)/C=C/c2ccccc2O)c(=O)n(-c2ccccc2)n1C`, the TGI was 70.8 µM in the test on COLO 205 colon; 89.7 µM in the test with UACC-257 melanoma; 34.6 µM in the test on HCT-116 colon; over 100 µM in the test with UACC-62 melanoma; 63.2 µM in the test with MOLT-4 leukemia; over 100 µM in the test on SNB-19 CNS. The TGI with A549 NSCLC is over 100 µM.
`Cc1c(C(=O)/C=C/c2ccc(N(C)C)cc2)c(=O)n(-c2ccccc2)n1C`: the TGI in the test on COLO 205 colon, with UACC-257 melanoma, in the test with HCT-116 colon, with UACC-62 melanoma, with MOLT-4 leukemia and in the test with UO-31 renal was over 100 µM throughout. Also, the TGI in the test with SNB-19 CNS and with A549 NSCLC was over 100 µM throughout.
For `CC1=C(C(=O)c2ccccc2)C23C(=O)N(c4ccccc4)C(=O)C2=C(O)C=CC3(O)N1` (configuration not stated), the TGI in the test on BT-549 breast was 49.2 µM; with COLO 205 colon, over 100 µM; in the test on HS 578T breast, over 100 µM; in the test with UACC-257 melanoma it was over 100 µM; with HCT-116 colon, over 100 µM; with UACC-62 melanoma, 48 µM. Besides, the TGI in the test on UO-31 renal was 37.8 µM; with SNB-19 CNS, over 100 µM; in the test on A549 NSCLC, over 100 µM.
For `NC1=CN2c3ccccc3N(CC(=O)O)C2C=C1` (configuration not stated), the TGI in the test on BT-549 breast, in the test on COLO 205 colon, with HS 578T breast, with UACC-257 melanoma, in the test with HCT-116 colon and with UACC-62 melanoma was over 100 µM in each case. Besides, the TGI in the test with MOLT-4 leukemia, with UO-31 renal, in the test with SNB-19 CNS and in the test with A549 NSCLC was over 100 µM each time.
`O=CC12C3CCC1C2C(=O)C3` (configuration not stated): the TGI in the test with BT-549 breast, in the test with COLO 205 colon, with UACC-257 melanoma, in the test with HCT-116 colon, in the test with UACC-62 melanoma and with MOLT-4 leukemia was over 100 µM in each case. Further, the TGI in the test on SNB-19 CNS, in the test on MDA-N and in the test with A549 NSCLC was over 100 µM in each case.
